Legend:
[1] = system: Providencia alcalifaciens; experiment: β-galactosidase detection on semi-solid medium, clinical and environmental strains (Example 2); format: cell-based; conditions: 50 mg/l + iron citrate 500 mg/l; 18 hours; 3 strains tested
Aeromonas caviae = experiment: as above; format: cell-based; conditions: 50 mg/l + iron citrate 500 mg/l; 18 hours; 7 strains tested
[2] = system: Enterococcus faecalis 117; experiment: β-galactosidase detection in semi-solid Columbia medium (Example 1); format: cell-based
Hafnia alvei = experiment: β-galactosidase detection on semi-solid medium, clinical and environmental strains (Example 2); format: cell-based; conditions: 50 mg/l + iron citrate 500 mg/l; 18 hours; 10 strains tested
Aeromonas hydrophila = experiment: as above; format: cell-based; conditions: 50 mg/l + iron citrate 500 mg/l; 18 hours; 3 strains tested
[3] = system: Klebsiella pneumoniae 023; experiment: β-galactosidase detection in semi-solid Columbia medium (Example 1); format: cell-based
Escherichia coli = experiment: β-galactosidase detection on semi-solid medium, clinical and environmental strains (Example 2); format: cell-based; conditions: 50 mg/l + iron citrate 500 mg/l; 18 hours; 41 strains tested
Enterobacter aerogenes = experiment: as above; format: cell-based; conditions: 50 mg/l + iron citrate 500 mg/l; 18 hours; 9 strains tested
Enterobacter cloacae = experiment: as above; format: cell-based; conditions: 50 mg/l + iron citrate 500 mg/l; 18 hours; 21 strains tested
Serratia marcescens 042 = experiment: β-galactosidase detection in semi-solid Columbia medium (Example 1); format: cell-based
Providencia stuartii = experiment: β-galactosidase detection on semi-solid medium, clinical and environmental strains (Example 2); format: cell-based; conditions: 50 mg/l + iron citrate 500 mg/l; 18 hours; 10 strains tested
Vibrio cholerae = format: cell-based; conditions: 50 mg/l + iron citrate 500 mg/l; 18 hours; 1 strain tested
Citrobacter freundii = experiment: β-galactosidase detection on semi-solid medium, clinical and environmental strains (Example 2); format: cell-based; conditions: 50 mg/l + iron citrate 500 mg/l; 18 hours; 16 strains tested
Proteus mirabilis = experiment: as above; format: cell-based; conditions: 50 mg/l + iron citrate 500 mg/l; 18 hours; 16 strains tested
Citrobacter diversus = experiment: as above; format: cell-based; conditions: 50 mg/l + iron citrate 500 mg/l; 18 hours; 9 strains tested
Morganella morganii = experiment: as above; format: cell-based; conditions: 50 mg/l + iron citrate 500 mg/l; 18 hours; 12 strains tested
Klebsiella oxytoca = experiment: as above; format: cell-based; conditions: 50 mg/l + iron citrate 500 mg/l; 18 hours; 13 strains tested
Salmonella spp. = experiment: as above; format: cell-based; conditions: 50 mg/l + iron citrate 500 mg/l; 18 hours; 64 strains tested
Citrobacter koseri 059 = experiment: Comparison of glucoside substrates in semi-solid Columbia medium (Example 7); format: cell-based; conditions: 0.05 g/l + iron citrate 0.05 g/l
[4] = system: Bacillus thuringiensis 072; experiment: β-glucosidase detection in API strip wells (Example 6); conditions: 0.12 g/l + iron citrate 0.05 g/l; 24 H
[5] = system: Klebsiella pneumoniae 023; experiment: Comparison of glucoside substrates in semi-solid Columbia medium (Example 7); format: cell-based; conditions: 0.05 g/l + iron citrate 0.05 g/l
[6] = system: Enterococcus faecalis 117; experiment: as above; format: cell-based; conditions: 0.05 g/l + iron citrate 0.05 g/l

## O=C1c2ccccc2C(=O)c2c1ccc(O[C@@H]1O[C@H](CO)[C@H](O)[C@H](O)[C@H]1O)c2O [Alizarin-2-β-D-galactoside]
[1]
  percentage of positive strains: 0%
Aeromonas caviae
  percentage of positive strains: 86%
[2]; 0.01 g/l + iron citrate, 18 H
  Color: purple
  Intensity: 0.3
[2]; 0.01 g/l + iron citrate, 24 H
  Color: purple
  Intensity: 0.6
[2]; 0.01 g/l + iron citrate, 48 H
  Color: purple
  Intensity: 0.6
[2]; 0.03 g/l + iron citrate, 18 H
  Color: purple
  Intensity: 2.7
[2]; 0.03 g/l + iron citrate, 24 H
  Color: purple
  Intensity: 3
[2]; 0.03 g/l + iron citrate, 48 H
  Color: purple
  Intensity: 3.5
[2]; 0.05 g/l + iron citrate, 18 H
  Color: purple
  Intensity: 4
[2]; 0.05 g/l + iron citrate, 24 H
  Color: purple
  Intensity: 4
[2]; 0.05 g/l + iron citrate, 48 H
  Color: purple
  Intensity: 4
[2]; 0.08 g/l + iron citrate, 18 H
  Color: purple
  Intensity: 4
[2]; 0.08 g/l + iron citrate, 24 H
  Color: purple
  Intensity: 4
[2]; 0.08 g/l + iron citrate, 48 H
  Color: purple
  Intensity: 4
Hafnia alvei
  percentage of positive strains: 80%
Aeromonas hydrophila
  percentage of positive strains: 100%
[3]; 0.03 g/l + iron citrate, 18 H
  Color: purple
  Intensity: 0.3
[3]; 0.03 g/l + iron citrate, 24 H
  Color: purple
  Intensity: 0.3
[3]; 0.03 g/l + iron citrate, 48 H
  Color: purple
  Intensity: 0.5
[3]; 0.05 g/l + iron citrate, 18 H
  Color: purple
  Intensity: 0.8
[3]; 0.05 g/l + iron citrate, 24 H
  Color: purple
  Intensity: 1
[3]; 0.05 g/l + iron citrate, 48 H
  Color: purple
  Intensity: 1
[3]; 0.08 g/l + iron citrate, 18 H
  Color: purple
  Intensity: 1.5
[3]; 0.08 g/l + iron citrate, 24 H
  Color: purple
  Intensity: 1.5
[3]; 0.08 g/l + iron citrate, 48 H
  Color: purple
  Intensity: 1.7
Escherichia coli
  percentage of positive strains: 95%
Enterobacter aerogenes
  percentage of positive strains: 100%
Enterobacter cloacae
  percentage of positive strains: 100%
Serratia marcescens 042; 0.01 g/l + iron citrate, 48 H
  Color: purple
  Intensity: 0.3
Serratia marcescens 042; 0.03 g/l + iron citrate, 18 H
  Color: purple
  Intensity: 0.5
Serratia marcescens 042; 0.03 g/l + iron citrate, 24 H
  Color: purple
  Intensity: 1
Serratia marcescens 042; 0.03 g/l + iron citrate, 48 H
  Color: purple
  Intensity: 1.7
Serratia marcescens 042; 0.05 g/l + iron citrate, 18 H
  Color: purple
  Intensity: 1
Serratia marcescens 042; 0.05 g/l + iron citrate, 24 H
  Color: purple
  Intensity: 2.5
Serratia marcescens 042; 0.05 g/l + iron citrate, 48 H
  Color: purple
  Intensity: 3
Serratia marcescens 042; 0.08 g/l + iron citrate, 18 H
  Color: purple
  Intensity: 2
Serratia marcescens 042; 0.08 g/l + iron citrate, 24 H
  Color: purple
  Intensity: 2.5
Serratia marcescens 042; 0.08 g/l + iron citrate, 48 H
  Color: purple
  Intensity: 3.5
Providencia stuartii
  percentage of positive strains: 0%
Vibrio cholerae
  percentage of positive strains: 100%
Citrobacter freundii
  percentage of positive strains: 100%
Proteus mirabilis
  percentage of positive strains: 0%
Citrobacter diversus
  percentage of positive strains: 89%
Morganella morganii
  percentage of positive strains: 0%
Klebsiella oxytoca
  percentage of positive strains: 100%
Salmonella spp.
  percentage of positive strains: 0%

## O=C1c2ccccc2C(=O)c2c1ccc(O[C@@H]1O[C@H](CO)[C@@H](O)[C@H](O)[C@H]1O)c2O [Alizarin-2-β-D-glucoside]
Citrobacter koseri 059; 18 H
  Color: Mauve
  Intensity: 2 arbitrary units
Citrobacter koseri 059; 24 H
  Color: Mauve
  Intensity: 3 arbitrary units
Citrobacter koseri 059; 48 H
  Color: Mauve
  Intensity: 3.5 arbitrary units
[4]
  Color observed: Purple
[5]; 18 H
  Color: Purple
  Intensity: 3.5 arbitrary units
[5]; 24 H
  Color: Purple
  Intensity: 4 arbitrary units
[5]; 48 H
  Color: Purple
  Intensity: 4 arbitrary units
[6]; 18 H
  Color: Purple
  Intensity: 3.5 arbitrary units
[6]; 24 H
  Color: Purple
  Intensity: 4 arbitrary units
[6]; 48 H
  Color: Purple
  Intensity: 4 arbitrary units
